Test results reported in paper PMC11077050 (2024).

Tests used:
[1] = system: 15N-labeled RNA 2 (RNA, riboswitch) CCGGCAUAGCUUGUCCUUUAAUGGUCCUAUGUCGAAAAUG; assay: 1H NMR imino proton titration; details: Na+ (25 mM NaCl, 15 mM sodium phosphate); pH 6.5, 15 °C, 10% D2O, 280 μM RNA, 0-4.5 equivalents; slow exchange in 0-1 equivalent range
[2] = system: RNA 2 (RNA, riboswitch) CCGGCAUAGCUUGUCCUUUAAUGGUCCUAUGUCGAAAAUG; assay: native ESI MS with CAD top-down MS (FT-ICR); details: NH4+ 50 mM (ammonium bicarbonate), no divalent ions; 9:1 H2O/CH3OH, 0.25 mM piperazine, pH ~7.5; 1 μM RNA, 1-5 μM neomycin B; fourth molecule unspecific
[3] = system: RNA 3 (RNA, riboswitch) CCGUCAUAGCUUGUCCUUUAAUGGUCCUAUGACGAAAAUG; assay: native ESI MS with CAD top-down MS (FT-ICR); details: NH4+ 50 mM (ammonium bicarbonate), no divalent ions; 9:1 H2O/CH3OH, 0.25 mM piperazine, pH ~7.5; 1 μM RNA, 1-5 μM neomycin B
[4] = system: RNA 4 (RNA, riboswitch) CCCUGAUAGCUUGUCCUUUAAUGGUCCUAUCUGGAAAAUG; assay: native ESI MS with CAD top-down MS (FT-ICR); details: NH4+ 50 mM (ammonium bicarbonate), no divalent ions; 9:1 H2O/CH3OH, 0.25 mM piperazine, pH ~7.5; 1 μM RNA, 1-5 μM neomycin B
[5] = system: RNA 5 (RNA, riboswitch) CCGGCAUAGCUUCUCCUUUAAUGGUCCUAUGUCGAAAAUG; assay: native ESI MS with CAD top-down MS (Orbitrap); details: motif C occupancy reduced to ~60% in 1:3 complexes

binding [1]: yes
binding [2]: yes
binding [3]: yes
binding [4]: yes
binding [5]: yes
SMILES: NC[C@@H]1O[C@H](O[C@H]2[C@@H](O)[C@H](O[C@@H]3[C@@H](O)[C@H](N)C[C@H](N)[C@H]3O[C@H]3O[C@H](CN)[C@@H](O)[C@H](O)[C@H]3N)O[C@@H]2CO)[C@H](N)[C@@H](O)[C@@H]1O
